Patent US11319298B2 (Merck Sharp & Dohme Corp., priority 2016, dated 2022)

biological target: T1, human M4 muscarinic acetylcholine receptor (Homo sapiens, UniProt P08173); test: human FLIPR-based M4 PAM assay, CHO-K1 cells stably transfected with human M4 receptor and chimeric G-protein Gαqi5; assay type: cell-based; conditions: inflection point (IP) of dose response curve; acetylcholine added at 20% of maximum response; CHO-K1 human M4/Gαqi5, FLIPR Tetra
T1 construct: expressed in transfected cells; host or cells: CHO-K1
T1 sequence (P08173 1-479): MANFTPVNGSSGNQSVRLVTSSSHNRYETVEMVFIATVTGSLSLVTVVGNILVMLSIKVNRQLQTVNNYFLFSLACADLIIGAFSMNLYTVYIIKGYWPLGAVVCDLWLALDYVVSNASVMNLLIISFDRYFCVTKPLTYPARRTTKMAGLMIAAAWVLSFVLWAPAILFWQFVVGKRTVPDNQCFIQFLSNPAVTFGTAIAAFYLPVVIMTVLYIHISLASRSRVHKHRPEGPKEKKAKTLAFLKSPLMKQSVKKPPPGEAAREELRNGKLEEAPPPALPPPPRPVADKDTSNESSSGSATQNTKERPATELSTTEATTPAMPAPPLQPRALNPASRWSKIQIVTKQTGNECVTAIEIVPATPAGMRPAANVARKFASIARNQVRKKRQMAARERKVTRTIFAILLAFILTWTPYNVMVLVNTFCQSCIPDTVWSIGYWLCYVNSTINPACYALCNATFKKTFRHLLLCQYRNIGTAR
Method in brief: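 CHO-K1 cells were loaded with calcium dye at 37 °C for ~1 h. Fluorescence (ex 470–495/em 515–575 nm) was read for 4 min after test compound at increasing concentrations, then 3.5 min after acetylcholine at an EC20; sometimes a third addition at EC70 followed. The value is the inflection point of a 4-parameter logistic fit.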

In order of rising EC50:
1. Cc1cc(C(=O)NCc2ccncc2)nnc1N1CCC(Oc2ccc3[nH]ncc3c2)CC1 [Example 111, 6-[4-(1H-indazol-5-yloxy)piperidin-1-yl]-5-methyl-N-(pyridin-4-ylmethyl)pyridazine-3-carboxamide]  0.04 µM
2. COc1ccc(OC2CCN(c3nc(C#N)c(C(N)=O)cc3C)CC2)cn1 [Example 112, 2-cyano-6-{4-[(6-methoxpyridin-3-yl)oxy]piperidin-1-yl}-5-methylpyridine-3-carboxamide]  0.041 µM
3. COc1ccc(OC2CCN(c3nc(CO)nc(C)c3C)CC2)cn1 [Example 241, (4-(4-((6-Methoxypyridin-3-yl)oxy)piperidin-1-yl)-5,6-dimethylpyrimidin-2-yl)methanol]  0.042 µM
4. COc1ccc(OC2CCN(c3ncnc(Cl)c3C)CC2)cn1 [Example 49, 4-chloro-6-(4-((6-methoxypyridin-3-yl)oxy)piperidin-1-yl)-5-methylpyrimidine]  0.044 µM
5. COc1ccc(OC2CCN(c3nc(CO)nc(Cl)c3C)CC2)cc1C#N [Example 48, 5-((1-(6-chloro-2-(hydroxymethyl)-5-methylpyrimidin-4-yl)piperidin-4-yl)oxy)-2-methoxybenzonitrile]  0.044 µM
6. Cc1cc(C(=O)NCc2ccccc2)nnc1N1CCC(Oc2cccc(C#N)c2)CC1 [Example 194, N-benzyl-6-[4-(3-cyanophenoxy)piperidin-1-yl]-5-methylpyridazine-3-carboxamide]  0.051 µM
7. Cc1cc(C(=O)NCc2ccncc2)nnc1N1CCC(Oc2cnn(C)c2)CC1 [Example 22, 5-methyl-6-(4-((1-methyl-1H-pyrazol-4-yl)oxy)piperidin-1-yl)-N-(pyridin-4-ylmethyl)pyridazine-3-carboxamide]  0.074 µM
8. Cc1c(Cl)nc(CO)nc1N1CC[C@@H](Oc2ccc3c(cnn3C)c2)[C@@H](F)C1 (relative stereo) [Example 25, (4-chloro-6-((cis)-3-fluoro-4-((1-methyl-1H-indazol-5-yl)oxy)piperidin-1-yl)-5-methylpyrimidin-2-yl)methanol]  0.078 µM
9. COc1ccc(OC2CCN(c3nc(C)nc(Cl)c3C)CC2)cc1 [Example 62, 4-chloro-6-(4-(4-methoxyphenoxy)piperidin-1-yl)-2,5-dimethylpyrimidine]  0.094 µM
10. CCc1cc(C(=O)NCc2ccncc2)nnc1N1CCC(Oc2ccc(OC)nc2)CC1 [Example 205, 5-Ethyl-6-(4-((6-methoxypyridin-3-yl)oxy)piperidin-1-yl)-N-(pyridin-4-ylmethyl)pyridazine-3-carboxamide]  0.097 µM
11. CONC(=O)c1cc(C)c(N2CCC(Oc3ccc(OC)nc3)CC2)nn1 [Example 128, N-methoxy-6-{4-[(6-methoxypyridin-3-yl)oxy]piperidin-1-yl}-5-methylpyridazine-3-carboxamide]  0.121 µM
12. COC(=O)c1cc(C)c(N2CCC(Oc3ccc(OC)nc3)CC2)nn1 [Example 70, methyl 6-(4-((6-methoxypyridin-3-yl)oxy)piperidin-1-yl)-5-methylpyridazine-3-carboxylate]  0.129 µM
13. COc1ccc(OC2CCN(c3nc(NCCO)nc(Cl)c3C)CC2)cn1 [Example 228, 2-((4-Chloro-6-(4-((6-methoxypyridin-3-yl)oxy)piperidin-1-yl)-5-methylpyrimidin-2-yl)amino)ethan-1-ol]  0.156 µM
14. Cc1cc(C(=O)NCc2ccncc2)nnc1N1CCC(Oc2ccc3c(c2)C(=O)N(C)C3)CC1 [Example 135, 5-methyl-6-{4-[(2-methyl-3-oxo-2,3-dihydro-1H-isoindol-5-yl)oxy]piperidin-1-yl}-N-(pyridin-4-ylmethyl)pyridazine-3-carboxamide]  0.158 µM
15. COc1ccc(O[C@@H]2CCN(c3nnc(C(=O)N[C@H]4CCc5ncccc5C4)cc3C)C[C@@H]2F)cn1 [Example 138A, 6-((3S,4R)-3-fluoro-4-((6-methoxypyridin-3-yl)oxy)piperidin-1-yl)-5-methyl-N-((S)-5,6,7,8-tetrahydroquinolin-6-yl)pyridazine-3-carboxamide]  0.177 µM
16. COc1ccc(OC2CCN(c3nnc(C(=O)NCc4c(C)nc5ccccn45)cc3C)CC2)cn1 [Example 149, 6-{4-[(6-methoxypyridin-3-yl)oxy]piperidin-1-yl}-5-methyl-N-[(2-methylimidazo[1,2-a]pyridin-3-yl)methyl]pyridazine-3-carboxamide]  0.228 µM
17. COc1ccc(OC2CCN(c3nc(S(C)(=O)=O)nc(Cl)c3C)CC2)cn1 [Example 226, 4-Chloro-6-(4-((6-methoxypyridin-3-yl)oxy)piperidin-1-yl)-5-methyl-2-(methylsulfonyl)pyrimidine]  0.231 µM
18. COc1ccc(OC2CCN(c3nnc(C(=O)NCc4ccncn4)cc3C)CC2)cn1 [Example 150, 6-{4-[(6-methoxypyridin-3-yl)oxy]piperidin-1-yl}-5-methyl-N-(pyrimidin-4-ylmethyl)pyridazine-3-carboxamide]  0.233 µM
19. COc1ccc(OC2CCN(c3nnc(C(=O)N[C@H]4CCc5cc(F)ccc5C4)cc3C)CC2)cn1 [Example 184A, (S)-N-(6-fluoro-1,2,3,4-tetrahydronaphthalen-2-yl)-6-{4-[(6-methoxypyridin-3-yl)oxy]piperidin-1-yl}-5-methylpyridazine-3-carboxamide]  0.427 µM
20. COc1ccc(OC2CCN(c3nnc(C(=O)NCc4ccc5c(c4)CCO5)cc3C)CC2)cn1 [Example 176, N-(2,3-dihydro-1-benzofuran-5-ylmethyl)-6-{4-[(6-methoxypyridin-3-yl)oxy]piperidin-1-yl}-5-methylpyridazine-3-carboxamide]  0.629 µM
21. Cc1ncc(C)c(N2CCC(Oc3ccc4c(c3)C(=O)NC4)CC2)n1 [Example 100, 6-((1-(2,5-dimethylpyrimidin-4-yl)piperidin-4-yl)oxy)isoindolin-1-one]  0.674 µM
22. CSc1nc(Cl)c(C)c(N2CCC(Oc3cccnc3)CC2)n1 [Example 15, 4-chloro-5-methyl-2-(methylthio)-6-(4-(pyridin-3-yloxy)piperidin-1-yl)pyrimidine]  0.745 µM
23. COc1ccc(OC2CCN(c3nc(C(=O)NC4CNC4)nc(Cl)c3C)CC2)cn1 [Example 215, N-(azetidin-3-yl)-4-chloro-6-(4-((6-methoxypyridin-3-yl)oxy)piperidin-1-yl)-5-methylpyrimidine-2-carboxamide]  0.835 µM
24. COC(=O)c1cc(C(=O)OC)c(N2CCC(Oc3ccc(OC)nc3)CC2)nc1C#N [Example 46, dimethyl 2-cyano-6-(4-((6-methoxypyridin-3-yl)oxy)piperidin-1-yl)pyridine-3,5-dicarboxylate]  0.939 µM
25. COc1ccc(OC2CCN(c3ncnc(N4C[C@H](F)[C@@H](F)C4)c3C)CC2)cn1 [Example 230, 4-((3S,4S)-3,4-difluoropyrrolidin-1-yl)-6-(4-((6-methoxypyridin-3-yl)oxy)piperidin-1-yl)-5-methylpyrimidine]  1.04 µM
26. COc1ccc(OC2CCN(c3nnc(C)c(C)c3C#N)CC2)cn1 [Example 86, 3-(4-((6-methoxypyridin-3-yl)oxy)piperidin-1-yl)-5,6-dimethylpyridazine-4-carbonitrile]  1.17 µM
27. COc1ccc(OC2CCN(c3ncnc(-c4ccc(F)cc4)c3C)CC2)cn1 [Example 257, 4-(4-fluorophenyl)-6-(4-((6-methoxypyridin-3-yl)oxy)piperidin-1-yl)-5-methylpyrimidine]  2.7 µM
